Laboratory results: PubChem BioAssay (NCI)
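Results reflect a 48-hour exposure of cells in 96-well plates to compound at five concentrations. The concentration for 50% growth inhibition is given as GI50. TGI is the concentration that stops growth completely.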

Columns and labels:
Experiment in all cases: NCI-60 cell line screen, 48 h
[1] = system: CCRF-CEM leukemia
[2] = system: MDA-MB-231 breast
[3] = system: HL-60(TB) leukemia
[4] = system: SNB-19 CNS
[5] = system: NCI-H522 lung
[6] = system: UO-31 renal
[7] = system: HCT-15 colon
[8] = system: 786-0 renal
[9] = system: MCF7 breast
[10] = system: KM12 colon
[11] = system: HCC-2998 colon
[12] = system: IGROV1 ovarian
[13] = system: HOP-92 NSCLC
[14] = system: A498 renal
[15] = system: MOLT-4 leukemia
[16] = system: SN12C renal
[17] = system: SK-MEL-28 melanoma
[18] = system: HCT-116 colon
[19] = system: OVCAR-5 ovarian
[20] = system: SF-268 CNS
[21] = system: SNB-75 CNS
[22] = system: SK-OV-3 ovarian
[23] = system: SF-295 CNS
[24] = system: LOX IMVI melanoma
[25] = system: MALME-3M melanoma
[26] = system: HT29 colon
[27] = system: TK-10 renal
[28] = system: RPMI-8226 leukemia
[29] = system: T-47D breast
[30] = system: NCI-H460 lung
[31] = system: SK-MEL-5 melanoma
[32] = system: M14 melanoma
[33] = system: EKVX NSCLC
[34] = system: A549 NSCLC
[35] = system: HOP-62 NSCLC
[36] = system: NCI-H23 lung
[37] = system: SW-620 colon
[38] = system: RXF 393 renal
[39] = system: BT-549 breast
[40] = system: UACC-257 melanoma
[41] = system: ACHN renal
[42] = system: U251 CNS
[43] = system: NCI-H226 lung
[44] = system: PC-3 prostate
[45] = system: SF-539 CNS
[46] = system: DU-145 prostate
[47] = system: OVCAR-3 ovarian
[48] = system: MDA-MB-435
[49] = system: OVCAR-4 ovarian
[50] = system: COLO 205 colon
[51] = system: HS 578T breast
[52] = system: SK-MEL-2 melanoma
[53] = system: OVCAR-8 ovarian
[54] = system: NCI/ADR-RES ovarian
[55] = system: UACC-62 melanoma
[56] = system: SR leukemia

## COc1ccc(NC(=O)COCCOCCNC[C@@H]2C(=O)O[C@H]3[C@H]2CC/C(COC(=O)OC/C2=C/CC[C@@]4(C)O[C@H]4[C@H]4OC(=O)[C@@H](CN(C)C)[C@@H]4CC2)=C\CC[C@@]2(C)O[C@@H]32)c(O)c1C(N)=O
[1]
  GI50: 1.21 µM
  TGI: 3.27 µM
[2]
  GI50: 5.03 µM
  TGI: 11.3 µM
[3]
  GI50: 0.77 µM
  TGI: 1.91 µM
[4]
  GI50: 14.3 µM
  TGI: > 50 µM
[5]
  GI50: 0.888 µM
  TGI: 1.88 µM
[6]
  GI50: 2.51 µM
  TGI: 9.13 µM
[7]
  GI50: 1.44 µM
  TGI: 6.14 µM
[8]
  GI50: 6.17 µM
  TGI: 13.7 µM
[9]
  GI50: 1.63 µM
  TGI: 9.01 µM
[10]
  GI50: 9.72 µM
  TGI: 22.5 µM
[11]
  GI50: 10.2 µM
  TGI: 19.1 µM
[12]
  GI50: 4.68 µM
  TGI: 11.8 µM
[13]
  GI50: 1.71 µM
  TGI: 6.93 µM
[14]
  GI50: 16.6 µM
  TGI: > 50 µM
[15]
  GI50: 1.63 µM
  TGI: 6 µM
[16]
  GI50: 7.74 µM
  TGI: 17.5 µM
[17]
  GI50: 2.79 µM
  TGI: 9.57 µM
[18]
  GI50: 3.5 µM
  TGI: 9.86 µM
[19]
  GI50: 8.9 µM
  TGI: 17.4 µM
[20]
  GI50: 8.7 µM
  TGI: 18.7 µM
[21]
  GI50: 10.2 µM
  TGI: > 50 µM
[22]
  GI50: 40.6 µM
  TGI: > 50 µM
[23]
  GI50: > 50 µM
  TGI: > 50 µM
[24]
  GI50: 5.31 µM
  TGI: 11.4 µM
[25]
  GI50: 1.52 µM
  TGI: 4.12 µM
[26]
  GI50: 1.71 µM
  TGI: 5.77 µM
[27]
  GI50: 2.72 µM
  TGI: 9.12 µM
[28]
  GI50: 1.42 µM
  TGI: 4.21 µM
[29]
  GI50: 1.71 µM
  TGI: 10.4 µM
[30]
  GI50: 16.5 µM
  TGI: > 50 µM
[31]
  GI50: 8.79 µM
  TGI: 17.3 µM
[32]
  GI50: 7.22 µM
  TGI: 15.5 µM
[33]
  GI50: 5.76 µM
  TGI: 14.7 µM
[34]
  GI50: 31.8 µM
  TGI: > 50 µM
[35]
  GI50: 39.9 µM
  TGI: > 50 µM
[36]
  GI50: 9.06 µM
  TGI: 22.1 µM
[37]
  GI50: 1.14 µM
  TGI: 2.87 µM
[38]
  GI50: 1.3 µM
  TGI: 3.59 µM
[39]
  GI50: 6.19 µM
  TGI: 12.9 µM
[40]
  GI50: 6.1 µM
  TGI: 13.2 µM
[41]
  GI50: 0.987 µM
  TGI: 2.21 µM
[42]
  GI50: 8.87 µM
  TGI: 18 µM
[43]
  GI50: 8.33 µM
  TGI: 16.2 µM
[44]
  GI50: 11.1 µM
  TGI: 26.9 µM
[45]
  GI50: 3.42 µM
  TGI: 9.92 µM
[46]
  GI50: 7.21 µM
  TGI: 13.7 µM
[47]
  GI50: 1.47 µM
  TGI: 5.26 µM
[48]
  GI50: 5.19 µM
  TGI: 12.3 µM
[49]
  GI50: 3.19 µM
  TGI: 10.2 µM
[50]
  GI50: 1.06 µM
  TGI: 2.52 µM
[51]
  GI50: 14.7 µM
  TGI: > 50 µM
[52]
  GI50: 9.69 µM
  TGI: 20.3 µM
[53]
  GI50: 3.56 µM
  TGI: 12 µM
[54]
  GI50: > 50 µM
  TGI: > 50 µM
[55]
  GI50: 5.11 µM
  TGI: 11.4 µM
[56]
  GI50: 1.99 µM
  TGI: 9.28 µM
